Experimental findings from patent publication US6290959A (New York University, dated 2001) are described below.

The subject of assay [1] is type 1-fimbriated bacteria. As to the kind of experiment: Bacterial (gel) overlay assay: radiolabelled bacteria on SDS/PAGE-resolved uroplakins on nitrocellulose. Format: binding, E. coli. To be noted: bovine uroplakins on nitrocellulose, autoradiography. How it is done: Asymmetric unit membrane proteins were resolved by SDS/PAGE (17% acrylamide; acrylamide/bisacrylamide=10:1) and electrophoretically transferred to nitrocellulose. After a brief incubation in 3% BSA in PBS to block the unoccupied sites, the nitrocellulose sheet was incubated with ^35 [S]methionine-labelled bacteria in 2% BSA and 0.1% NaN3. After three washings in PBS, the nitrocellulose was air-dried and autoradiographed.
To determine which of the asymmetric membrane proteins are responsible for this binding, a gel overlay assay was performed. Uroplakins were resolved by SDS/PAGE (cf. FIGS. 5A and 5B), transferred to nitrocellulose, and incubated with radiolabelled bacteria. […] The two major bacterial binding proteins were identified as the two closely related uroplakin proteins, i.e., the 27 kDa-uroplakin Ia and the 28 kDa-uroplakin Ib, according to their sizes and immunoreactivities (FIG. 5B, lanes 1 and 2). […] To determine whether the carbohydrate moieties of uroplakin I proteins were responsible for the binding of the type 1 fimbriae, as one might expect from the inhibitory effects of mannose (cf. FIG. 4), the effects of deglycosylation were tested, results shown in FIGS. 5D and E. Endo H removed about […] of sugars from uroplakin I proteins (cf. FIG. 5D, lanes 2 and 5). […]

The test system of assay [2] is type 1-fimbriated E. coli. Description: In vitro bacterial adherence assay: binding of 35S-labelled E. coli to immobilized bovine urothelial plaques (asymmetric unit membranes). The note with it: 2x10^5 cpm; for effect of sugars on bacterial binding to bovine asymmetrical unit membranes: E. coli SH48 (type 1 only), preincubated with sugar, 0.2 μg immobilized bovine AUM. As for the experimental part:
Purified asymmetric unit membranes were suspended in PBS and incubated in 96-well polystyrene microtiter plates at room temperature for 30 minutes, then at 4° C. for 16 hours. All subsequent steps were carried out at room temperature. After being washed three times with PBS for two hours, the immobilized asymmetric membrane units were incubated with 2% BSA in PBS for two hours, and ^35 S-labelled bacteria were incubated in 2% BSA and 0.1% NaN3 for two hours. The wells were then washed four times with PBS, and the bound bacteria were dissolved in 1% SDS for 30 minutes and quantitated by scintillation counting. All binding studies were performed in triplicate.
Purified bovine urothelial plaques, consisting of asymmetric unit membranes that cover 70-80% of the urothelial apical surface, were immobilized on microtiter wells (0.2 microgram per well). The unoccupied binding sites were blocked with 3% BSA in PBS. BSA was used to coat the control wells. The E. coli strains used were J96, which express type 1 fimbriae as well as P fimbriae carrying the G-1 and G-2 adhesins; SH48, which expresses type 1 fimbriae only; HU849, which expresses P fimbriae carrying G-1 adhesin; IA2, which expresses P fimbriae carrying G-adhesins; and nonfimbriated P678-54.
^35 [S]methionine-labelled bacteria were added to each well (2×10^5 cpm in 10^7 bacteria suspended in PBS). After incubation at 25° C. for two hours, the wells were washed with PBS and the radioactivities of the bound bacteria, dissolved in 1% SDS, were counted. Each value represents the means of triplicates bracketed by the standard deviation (±15%). It should be noted that only the type 1-fimbriated J96 and SH48 strains, but not the P-expressing HU849 and IA2 or the nonfimbriated P678-54, adhered to the asymmetric unit membranes.
In FIG. 1B, the relative contribution of type 1 and P fimbriae in the binding of J96 to asymmetric unit membranes is shown. ^35 S-labelled J96 (2×10^5 cpm) were incubated with immobilized asymmetric unit membranes in the absence or the presence of 2% D-mannose.
To test the effects of sugars on the binding of type-1 fimbriated E. coli to bovine urothelial plaques, 2×10^5 cpm of radiolabeled E. coli (SH48) were preincubated with D-mannose (Man), methyl-α-D-mannopyranoside(MMP), or D-galactose (Gal) before they were incubated with 0.2 μg of immobilized bovine asymmetrical unit membranes.

Assay [3] addresses E. coli strain SH48, expressing type 1 fimbriae only (FimH adhesin) (E. coli, UniProt P08191). Description: overlay of radiolabelled bacteria on SDS/PAGE-resolved uroplakins on nitrocellulose.

Regarding `O=C[C@H](O)[C@@H](O)[C@@H](O)[C@H](O)CO` [D-galactose], the “inhibition of binding of type 1-fimbriated bacteria to uroplakin protein bands” value in assay [1] is listed as “not”. Moreover, the “effect of sugars on bacterial binding to bovine asymmetrical unit membranes” value (“effect of sugars on bacterial binding” below) in assay [2] was “not”.
Consider `O=C[C@@H](O)[C@@H](O)[C@H](O)[C@H](O)CO` [D-mannose], for which, in assay [1], the “inhibition of binding of type 1-fimbriated bacteria to uroplakin protein bands” value is “inhibited”. Moreover, in assay [2], the “effect of sugars on bacterial binding” value is “greatly inhibited”. Moreover, the “binding of J96 to asymmetric unit membranes in the presence of mannose” value in assay [2] (E. coli strain J96 (type 1 and P fimbriae), 2% D-mannose, immobilized bovine AUM) is listed as “completely blocked”.
`CO[C@H]1O[C@H](CO)[C@@H](O)[C@H](O)[C@@H]1O` [methyl-α-D-mannopyranoside]: the “effect of sugars on bacterial binding” value in assay [2] is “greatly inhibited”.

B1: bovine uroplakin II (mature) (other)
chain: ELVSVVDSGSGFTVTRLSAYQVTNLAPGTKYYISYLVTKGASTESSREIPMSTFPRRKAESIGLAMARTGGMVVITVLLSVAMFLLVLGLIIALALGARK
B1: the binding result in assay [3] is given as “no binding”.
